How the values were obtained:
A549 lung cancer cells = test: In-vitro cytotoxicity of aminopterin formulations (cell titer-glo); assay type: cell-based; conditions: read-out: IC50 (cell viability inhibited by 50%); A549, 72 hours
Experimental: (§1) Cells originally purchased from ATCC (A549, Panc-1, OVCAR3, and BXPC-3) were seeded in 96 well tissue culture plates to be 50% confluent by 24 hours. Cells were incubated at 37° C. with 5.0% CO2. Cells were treated with escalading doses of free aminopterin, crosslinked aminopterin formulation, uncrosslinked aminopterin formulation, and non drug-loaded micelle formulations 24 hours after plate seeding. Free aminopterin was dissolved in DMSO and administered to cells with a total volume of DMSO equal to or less than 0.0025%. Micelle formulations were re-suspended in biology grade water. Dilutions were done in deep well plates with cell media and water or DMSO (for free aminopterin only) equalizing displaced volume. Incubation media was aspirated from the 96 well plates and 100 μl of each dilution was added to the wells in triplicate and incubated over 72 hours at 37° C. with 5.0% CO2. Crosslinked and uncrosslinked non drug-loaded micelle formulations were administered at the four highest doses and were calculated at comparative mg/ml concentrations to drug-loaded micelle concentrations of delivery vehicle. After 72-hour incubation, plates were allowed to cool to room temperature and 25 μl of cell titer-glo was added to each well. Plates were briefly shaken to mix and luminescence readings were read on a plate reader. Luminescence reading for triplicate doses are averaged and divided by average luminescence readings from untreated cells on the same plate to calculate the % of viable cells per dose.
(§2) The aminopterin loaded micelles from Example 119 and Example 121 were tested for cytotoxicity compared to free aminopterin and the crosslinked and uncrosslinked non drug-loaded micelle formulations (from polymer of Example 18) against A549 lung, OVCAR3 ovarian, PANC-1 (folate receptor +) pancreatic and BxPC3 (folate receptor −) pancreatic cancer cell lines. The cytotoxicity profiles for each treatment for each cell line in FIG. 14 (A549 Lung), FIG. 15 (OVCAR3 Ovarian), FIG. 16 (PANC-1 Pancreatic), and FIG. 17 (BxPC3 pancreatic). […] Treatment with both uncrosslinked and crosslinked non drug-loaded micelles was well tolerated, with greater than 80% viability for all cells tested.

[1] = system: BxPC3 pancreatic (folate receptor −) cancer cells; test: as above; assay type: cell-based; conditions: BxPC3, 72 hours
Experimental: as §1, §2

[2] = system: OVCAR3 ovarian cancer cells; test: as above; assay type: cell-based; conditions: OVCAR3, 72 hours
Experimental: as §1, §2

[3] = system: PANC-1 pancreatic (folate receptor +) cancer cells; test: as above; assay type: cell-based; conditions: read-out: IC50 (cell viability inhibited by 50%); PANC-1, 72 hours
Experimental: as §1, §2

[4] = Fisher, rat, in vivo, iv, 5 mg/kg
in vivo [5] = conditions: Fisher, rat, iv, 5 mg/kg
in vivo [6] = test: in vivo; design: species or system Fisher rats; conditions: Fisher, rat, iv, 10 mg/kg
Experimental: The delivery vehicle for drug administration was isotonic saline. […] Samples were analyzed on a Waters Alliance 2695 equiped with a 2475 fluorescence detector (Ex=470 nm; Em=580). A 5 μL sample injection was made onto a Waters 4 μm Nova Pak C18 (3.9×150 mm) at 30° C. with a flow rate of 0.750 mL per minute of 10 mM phosphate buffer (pH=1.4), methanol and acetonitrile (gradient from 70/10/20 to 40/10/50 for buffer/methanol/acetonitrile was made over eight minutes). Analyte eluted at 5.9 minutes under these conditions, was normalized to the internal standard, and quantitated using a standard curve comprised of seven standards.

[7] = system: HCT-116 colon cancer cells; test: Anti-tumor efficacy of SN-38 micelles in HCT-116 xenograft model; assay type: in vivo, mice; conditions: irinotecan at 50 mg/kg, IV 3×QW

**Q.** Which results are given for `Nc1nc(N)c2nc(CNc3ccc(C(=O)N[C@@H](CCC(=O)O)C(=O)O)cc3)cnc2n1` [Aminopterin, aminopterin]?
**A.** IC50 (A549 lung cancer cells): 7 to 25 nM; IC50 (cell viability inhibited by 50%) [1]: no IC50 was obtained; IC50 (cell viability inhibited by 50%) [2]: no IC50 was obtained; IC50 [3]: 7 to 25 nM

**Q.** For `CO[C@H]1C(=O)[C@]2(C)[C@@H](OC)C[C@H]3OC[C@@]3(OC(C)=O)[C@H]2[C@H](OC(=O)c2ccccc2)[C@]2(O)C[C@H](OC(=O)[C@H](O)[C@@H](NC(=O)OC(C)(C)C)c3ccccc3)C(C)=C1C2(C)C` [free cabizataxel, cabazitaxel], which “Exposure of cabazitaxel to the plasma compartment over 15 minutes” value [4] is on record?
**A.** 200 ng·h/mL

**Q.** And the Cmax (in vivo [5])?
**A.** 1200 ng/mL

**Q.** Which results are given for `COc1cccc2c1C(=O)c1c(O)c3c(c(O)c1C2=O)C[C@@](O)(C(C)=O)C[C@@H]3O[C@H]1C[C@H](N)[C@H](O)[C@H](C)O1` [free daunorubicin, daunorubicin]?
**A.** AUC (in vivo [6]): 1300 ng·h/mL; Cmax (in vivo [6]): 3300 ng/mL; Half-life (terminal, elimination) (in vivo [6]): 3.3 h; half-life (in vivo [6]; Half-life (terminal, elimination)): 3.4 h

**Q.** With `CCc1c2c(nc3ccc(OC(=O)N4CCC(N5CCCCC5)CC4)cc13)-c1cc3c(c(=O)n1C2)COC(=O)[C@]3(O)CC` [irinotecan] as the molecule, how does the “Mean tumor growth rate” value [7] read?
**A.** 18.9 mm^3 per day
